In patent US20140005163A1 (NOVARTIS AG, priority 2010, published 2014):

Legend:
[1] = test system: S6 Ribosomal Protein phosphorylation Ser235/236 in TSC1 null mouse embryo fibroblast (MEF) cells; test: Reverse protein array assay, S6 Ribosomal Protein phosphorylation Ser235/236 in TSC1 null MEF cells; format: cell-based; conditions: 1 h, pS6 ribosomal protein Ser235/236, 60 minutes incubation, read-out: p-S6 IC50
In short: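 TSC1−/− MEFs, seeded and held ≥20 h at 37 °C/5% CO2, were exposed to 8-step serial compound dilutions (0.02% DMSO final; DMSO vehicle control) for 60 min at 37 °C. Cells were then lysed on ice for 10 min and lysates spotted onto reverse protein array chips.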

[2] = biological target: T1, PI3K alpha (Homo sapiens, UniProt P42336); test: PI3K alpha kinase assay (Kinase-Glo luminescence); format: biochemical
T1 construct: p85(iSH2) fusion partner (see partner chain) (N); His tag (C); made in house; host or cells: baculovirus; Tn5 (Trichoplusia ni) or TiniPro insect cells
In short: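 PI3Kα construct EMV B1075 (10 nM final) was preincubated with 10 μg/mL phosphatidylinositol in 10 mM Tris-HCl pH 7.5, 3 mM MgCl2, 50 mM NaCl, 0.05% CHAPS, 1 mM DTT. Reaction started with 1 μM ATP, 60 min at room temperature; remaining ATP measured by Kinase-Glo luminescence. IC50 from 4-parameter logistic fit of 8-point titrations.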

[3] = test system: PKB Ser473 phosphorylation in Rat1-myr-HA-p110 beta cells; test: Reverse protein array assay, PKB Ser473 phosphorylation in Rat1-myr-p110 beta cells; format: cell-based; conditions: 0.5 h, pAkt Ser473, 30 minutes incubation, read-out: p-PKB IC50
In short: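 After at least 20 h of culture, the p110 isoform-transfected Rat1 lines receive compound in an 8-step dilution series, keeping DMSO at 0.2%, for 30 minutes. Cells are then lysed and lysates arrayed on chips for fluorescence detection of Ser473-phosphorylated PKB.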

T1 sequence (P42336 with tags, fused parts or gaps limits assumed): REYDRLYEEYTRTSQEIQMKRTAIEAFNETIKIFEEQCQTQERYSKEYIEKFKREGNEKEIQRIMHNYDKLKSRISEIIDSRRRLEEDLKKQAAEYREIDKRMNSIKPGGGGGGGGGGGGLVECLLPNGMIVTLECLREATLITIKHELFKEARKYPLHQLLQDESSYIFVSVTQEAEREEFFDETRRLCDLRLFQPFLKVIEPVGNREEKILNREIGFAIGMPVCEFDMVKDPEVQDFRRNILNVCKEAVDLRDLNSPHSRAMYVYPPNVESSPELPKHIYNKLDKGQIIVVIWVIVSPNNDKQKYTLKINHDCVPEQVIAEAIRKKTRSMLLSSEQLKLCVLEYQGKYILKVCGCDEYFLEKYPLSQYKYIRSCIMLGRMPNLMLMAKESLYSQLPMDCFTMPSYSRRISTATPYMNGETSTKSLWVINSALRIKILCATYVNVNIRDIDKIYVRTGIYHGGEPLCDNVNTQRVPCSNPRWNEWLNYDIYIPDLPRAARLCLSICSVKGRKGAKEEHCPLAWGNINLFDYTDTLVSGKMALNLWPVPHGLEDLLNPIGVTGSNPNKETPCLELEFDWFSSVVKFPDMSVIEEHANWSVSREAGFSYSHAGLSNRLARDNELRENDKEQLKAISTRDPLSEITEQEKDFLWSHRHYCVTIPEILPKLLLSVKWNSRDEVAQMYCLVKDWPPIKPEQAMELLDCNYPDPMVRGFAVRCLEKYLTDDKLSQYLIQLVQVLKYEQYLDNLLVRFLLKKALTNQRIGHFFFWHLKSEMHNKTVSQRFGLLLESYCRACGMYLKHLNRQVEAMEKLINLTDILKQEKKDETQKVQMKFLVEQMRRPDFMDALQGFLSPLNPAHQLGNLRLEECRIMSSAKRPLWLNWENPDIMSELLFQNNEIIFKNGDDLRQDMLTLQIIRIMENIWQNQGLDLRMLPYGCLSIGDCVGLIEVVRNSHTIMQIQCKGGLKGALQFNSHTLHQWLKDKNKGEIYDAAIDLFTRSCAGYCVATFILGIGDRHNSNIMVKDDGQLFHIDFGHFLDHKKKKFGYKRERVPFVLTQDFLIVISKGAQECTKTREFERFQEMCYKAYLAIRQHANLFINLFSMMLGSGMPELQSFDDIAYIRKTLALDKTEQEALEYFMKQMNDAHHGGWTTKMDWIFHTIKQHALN

Row | Compound | IC50 [1] | IC50 [2] | IC50 [3]
1 | Cc1nn(C(C)C)cc1-n1c(=O)n(C)c2cnc3ccc(-c4cncc(C(O)(CF)CF)c4)cc3c21 [Example 219, 8-[5-(2-Fluoro-1-fluoromethyl-1-hydroxy-ethyl)-pyridin-3-yl]-1-(1-isopropyl-3-methyl-1H-pyrazol-4-yl)-3-methyl-1,3-dihydro-imidazo[4,5-c]quinolin-2-one] | 0.006 µM | 0.012 µM | 0.497 µM
2 | CCn1cc(-n2c(=O)n(C)c3cnc4ccc(-c5cncc(C6(C#N)CCC6)c5)cc4c32)c(C)n1 [Example 221.2, 1-{5-[1-(1-Ethyl-3-methyl-1H-pyrazol-4-yl)-3-methyl-2-oxo-2,3-dihydro-1H-imidazo[4,5-c]quinolin-8-yl]-pyridin-3-yl}-cyclobutanecarbonitrile] | 0.001 µM | 0.013 µM | 0.103 µM
3 | CC(=O)Nc1cc(-c2ccc3ncc4c(c3c2)n(-c2cn(C)nc2C)c(=O)n4C)cnc1Cl [Example 222, N-{2-Chloro-5-[1-(1,3-dimethyl-1H-pyrazol-4-yl)-3-methyl-2-oxo-2,3-dihydro-1H-imidazo[4,5-c]quinolin-8-yl]-pyridin-3-yl}-acetamide] | 0.004 µM | 0.043 µM | 0.052 µM
4 | Cc1nn(C)cc1-n1c(=O)n(C)c2cnc3ccc(-c4cnc(Cl)c(NS(C)(=O)=O)c4)cc3c21 [Example 223, N-{2-Chloro-5-[1-(1,3-dimethyl-1H-pyrazol-4-yl)-3-methyl-2-oxo-2,3-dihydro-1H-imidazo[4,5-c]quinolin-8-yl]-pyridin-3-yl}-methanesulfonamide] | 0.035 µM | 0.003 µM | 0.024 µM
5 | Cc1nn(C)cc1-n1c(=O)n(C)c2cnc3ccc(-c4cnc(N)c(C(=O)NC(C)C)c4)cc3c21 [Example 225, 2-Amino-5-[1-(1,3-dimethyl-1H-pyrazol-4-yl)-3-methyl-2-oxo-2,3-dihydro-1H-imidazo[4,5-c]quinolin-8-yl]-N-isopropyl-nicotinamide] | 0.004 µM | 0.02 µM | 0.111 µM
6 | COCCNC(=O)c1cc(-c2ccc3ncc4c(c3c2)n(-c2cn(C)nc2C)c(=O)n4C)cnc1N [Example 226, 2-Amino-5-[1-(1,3-dimethyl-1H-pyrazol-4-yl)-3-methyl-2-oxo-2,3-dihydro-1H-imidazo[4,5-c]quinolin-8-yl]-N-(2-methoxy-ethyl)-nicotinamide] | 0.007 µM | 0.033 µM | 0.457 µM
7 | COc1ncc(-c2ccc3ncc4c(c3c2)n(-c2cn(C(C)C)nc2C)c(=O)n4C)c(OC)n1 [Example 234.3, 8-(2,4-Dimethoxy-pyrimidin-5-yl)-1-(1-isopropyl-3-methyl-1H-pyrazol-4-yl)-3-methyl-1,3-dihydro-imidazo[4,5-c]quinolin-2-one] | 0.002 µM | 0.015 µM | 0.015 µM
8 | Cc1nn(C)cc1-n1c(=O)n(C)c2cnc3ccc(-c4cnc(CO)c(Cl)c4)cc3c21 [Example 238, 8-(5-Chloro-6-hydroxymethyl-pyridin-3-yl)-1-(1,3-dimethyl-1H-pyrazol-4-yl)-3-methyl-1,3-dihydro-imidazo[4,5-c]quinolin-2-one] | 0.006 µM | 0.029 µM | 0.116 µM
9 | CCOC(C)(C)c1cncc(-c2ccc3ncc4c(c3c2)n(-c2cn(C)nc2C)c(=O)n4C)c1 [Example 240, 1-(1,3-Dimethyl-1H-pyrazol-4-yl)-8-[5-(1-ethoxy-1-methyl-ethyl)-pyridin-3-yl]-3-methyl-1,3-dihydro-imidazo[4,5-c]quinolin-2-one] | 0.011 µM | 0.006 µM | 0.128 µM
10 | C=CCn1c(=O)n(-c2cn(C)nc2C)c2c3cc(-c4cncc(N)c4)ccc3ncc21 [Example 246, 3-Allyl-8-(5-amino-pyridin-3-yl)-1-(1,3-dimethyl-1H-pyrazol-4-yl)-1,3-dihydro-imidazo[4,5-c]quinolin-2-one] | 0.041 µM | 0.028 µM | 0.294 µM
11 | CCN(CC)C(=O)Cn1cc(-n2c(=O)n(C)c3cnc4ccc(-c5cnc(N6CCCC6)nc5)cc4c32)c(C)n1 [Example 247.1, N,N-Diethyl-2-{3-methyl-4-[3-methyl-2-oxo-8-(2-pyrrolidin-1-yl-pyrimidin-5-yl)-2,3-dihydro-imidazo[4,5-c]quinolin-1-yl]-pyrazol-1-yl}-acetamide] | 0.003 µM | 0.093 µM | 0.052 µM
